Data reported in ChEMBL document CHEMBL1139707, “In vitro inhibitory activity of boropinic acid against Helicobacter pylori” (2006).
In brackets after ≈: the same amount, converted by molar mass.

Tested on: Helicobacter pylori
Assay: Antimicrobial activity against Helicobacter pylori DSMZ 4867
Type: functional

Row | Structure (SMILES) | MIC [µg/mL]
1 | CC(C)=CCC/C(C)=C/COc1ccc(/C=C/C(=O)O)cc1 | > 200
2 | COc1cc(C(=O)O)ccc1OCC=C(C)C | 50 (≈ 212 µM)
3 | COc1cc(C(=O)O)ccc1OC/C=C(\C)CCC=C(C)C | > 200
4 | COc1cc(/C=C/C(=O)O)ccc1OC/C=C(\C)CCC=C(C)C | > 200
5 | CC1(C)S[C@@H]2[C@H](NC(=O)[C@H](N)c3ccc(O)cc3)C(=O)N2[C@H]1C(=O)O [AMOXICILLIN] | 0.781 (≈ 2.14 µM)
6 | CC(C)=CCC/C(C)=C/COc1ccc2ccc(=O)oc2c1 [AURAPTENE] | 50 (≈ 168 µM)
7 | COc1cc(/C=C/C(=O)O)ccc1OCC=C(C)C [BOROPINIC ACID] | 1.62 (≈ 6.18 µM)
8 | CC[C@H]1OC(=O)[C@H](C)[C@@H](O[C@H]2C[C@@](C)(OC)[C@@H](O)[C@H](C)O2)[C@H](C)[C@@H](O[C@@H]2O[C@H](C)C[C@H](N(C)C)[C@H]2O)[C@](C)(OC)C[C@@H](C)C(=O)[C@H](C)[C@@H](O)[C@]1(C)O [CLARITHROMYCIN] | 1.25 (≈ 1.67 µM)
9 | Cc1ncc([N+](=O)[O-])n1CCO [METRONIDAZOLE] | > 200
10 | CN(C)[C@@H]1C(O)=C(C(N)=O)C(=O)[C@@]2(O)C(O)=C3C(=O)c4c(O)cccc4[C@@](C)(O)[C@H]3C[C@@H]12 [TETRACYCLINE] | 4 (≈ 9 µM)
11 | CC(C)=CCOc1ccc(C(=O)O)cc1 [VALENCIC ACID] | 100 (≈ 485 µM)
